# Experimental data published in patent US4839353A, “Anti-ulcer substituted pyridine derivatives” (Banyu Pharmaceutical Co., Ltd., priority 1986, dated 1989).
# Where a name gives a salt, the structure may show the parent alone.
# Key:
# H^+,K^+ -ATPase = target: T1, H^+,K^+ -ATPase (Oryctolagus cuniculus, UniProt P27112); test: Inhibitory effects on the activity of H^+,K^+ -ATPase; assay type: biochemical; details: H^+,K^+ -ATPase-containing light membrane fractions from rabbit gastric glands; read-out: 50% Enzyme inhibitory concentration (IC50)
# T1 construct: Rabbit gastric glands were homogenized and microsomal fractions were prepared; from tissue; host or cells: rabbit gastric glands, light microsomal membrane fraction
# Procedure: (1) Inhibitory effects on the activity of H^+,K^+ -ATPase Rabbit gastric glands were homogenized and microsomal fractions were prepared by differential centrifugation of the resultant homogenate. The microsomal fractions were layered on 37% sucrose and centrifuged to obtain light membrane fractions containing H^+,K^+ -ATPase. Using the H^+,K^+ -ATPase-containing fractions, the effects of the compounds of this invention and omeprazole on the activity of H^+,K^+ -ATPase were examined. The inhibitory activities of the compounds of this invention on H^+,K^+ -ATPase measured by the above method are shown in Table I.
# [1] = tested on: gastric ulcer induced by ethanol-hydrochloric acid; test: Effect of preventing gastric ulcer induced by ethanol-hydrochloric acid; assay type: in vivo; details: SD-strain male rats, oral, 30 min before 0.2N hydrochloric acid-50% ethanol (1 ml/rat); length of bleeding erosions; read-out: 50% Effective dose (ED50, mg/kg)
# Procedure: (3) Effect of preventing gastric ulcer induced by ethanol-hydrochloric acid According to the method of Robert et al. (see "Gastroenterology" 77, 433-443 (1979), SD-strain rats (male, weighing 200 to 220 g, 8 rats in each group) were deprived of food for 24 hours and of water for 19 hours. Each of the test compounds was suspended in 0.5% carboxymethyl cellulose, and orally administered to the rats. Thirty minutes after administration, 0.2N hydrochloric acid-50% ethanol (1 ml/rat) was orally administered. One hour after the administration of ethanol-hydrochloric acid, the rats were killed. The stomachs were dissected out, and the lower part of the esophagus was nipped with a clip. Aqueous 1% formalin solution (12.0 ml) was poured into the stomachs from the duodenum and then the duodenum part was nipped with a clip. The whole stomachs were immersed in aqueous 1% formalin for about 10 minutes for fixation. The stomachs were opened along the greater curvature and then rinsed with water. The gastric mucosa was examined and the lengths of bleeding erosions which occurred in the glandular stomach were measured in mm under an anatomic microscope. From the test results obtained by the above method, the ED50 (50% effective dose) of each of the test compounds was calculated.
# gastric acid secretion = test: Gastric acid antisecretory activity (histamine-enhanced gastric acid secretion in anesthetized rats); assay type: in vivo; details: Rattus norvegicus, iv, 1.25 h; male Doryu rats, urethane anesthesia, histamine infusion 2 mg/kg/hr, test compound via jugular vein 75 min after start of infusion; read-out: Gastric acid antisecretory activity 50% Effective dose (ED50, mg/kg)
# Procedure: (2) Gastric acid antisecretory activity The method of preparation was based on the technique of Osumi et al. (see "Life Science" 20, 1407, 1977). Male Doryu rats weighing about 250 g were deprived of food for 24 hours but were allowed free access to water before experiments. […] The esophagus was ligated, and bilateral vagus nerves were carefully separated and cut at the cervical portion. The abdomen was opened by a midoline incinion, and a polyethylene cannula (about 3.5 cm in length and 0.4 cm in diameter) was inserted into the stomach via an incision in the duodenum. After washout of the stomach with saline, 2.0 ml of fresh saline prewarmed at 38° C. was instilled and replaced with fresh solution at 15 min intervals. Several successive collections of basal acid secretion were made to confirm the steady level of secretion. After these collections, gastric acid secretion was enhanced by infusion of histamine. Gastric acid secretion was determined as follows: the total value of gastric solution recovered from the stomach every 15 min was titrated to pH 7.0 with 0.1N NaOH, using an automatic titrator (Radiometer, Copenhage, Denmark). Acid output secreted for 15 min were calculated as microequivalents per 15 min. […] From the acid output in a control group measured at the time when the acid output secreted was lowest, the acid secretion inhibitory ratio (R) was calculated in accordance with the following equation. [formula] wherein V° is the acid output produced when the animals were not treated with the test compounds (control), and V is the acid output acid produced when the test compounds were administered to the animals. Furthermore, from correlation line between the dose and the inhibitory ratio at the dose by using the method of least squares, the 50% inhibitory dose was determined.
# T1 sequence (P27112 2-1035 limits assumed): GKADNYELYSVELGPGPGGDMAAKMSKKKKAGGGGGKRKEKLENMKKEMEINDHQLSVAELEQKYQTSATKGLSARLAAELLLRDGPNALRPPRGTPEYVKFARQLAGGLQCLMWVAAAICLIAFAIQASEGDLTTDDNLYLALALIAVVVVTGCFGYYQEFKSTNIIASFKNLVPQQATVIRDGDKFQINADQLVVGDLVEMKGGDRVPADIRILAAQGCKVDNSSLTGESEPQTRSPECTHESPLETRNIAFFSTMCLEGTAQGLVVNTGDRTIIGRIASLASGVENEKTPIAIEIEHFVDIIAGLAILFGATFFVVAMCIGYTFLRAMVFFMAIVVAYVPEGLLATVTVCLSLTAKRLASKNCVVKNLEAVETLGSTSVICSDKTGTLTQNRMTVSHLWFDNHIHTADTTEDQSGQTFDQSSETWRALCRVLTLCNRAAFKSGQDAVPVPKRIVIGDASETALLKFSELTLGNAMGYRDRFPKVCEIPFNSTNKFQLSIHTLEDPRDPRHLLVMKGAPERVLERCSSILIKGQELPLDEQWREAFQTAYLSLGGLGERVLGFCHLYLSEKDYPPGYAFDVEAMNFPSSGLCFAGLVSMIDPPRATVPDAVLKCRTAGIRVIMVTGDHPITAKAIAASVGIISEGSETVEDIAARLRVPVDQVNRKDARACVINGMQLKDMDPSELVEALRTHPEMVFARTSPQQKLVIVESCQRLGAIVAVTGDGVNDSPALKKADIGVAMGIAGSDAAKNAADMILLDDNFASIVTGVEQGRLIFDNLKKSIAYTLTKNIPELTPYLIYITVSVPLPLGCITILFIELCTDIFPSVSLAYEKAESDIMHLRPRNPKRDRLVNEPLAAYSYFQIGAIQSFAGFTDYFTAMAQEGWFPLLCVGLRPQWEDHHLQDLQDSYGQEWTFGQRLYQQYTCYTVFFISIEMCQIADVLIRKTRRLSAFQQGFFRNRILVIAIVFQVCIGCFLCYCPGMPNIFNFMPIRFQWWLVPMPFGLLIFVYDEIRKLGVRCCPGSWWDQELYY
# T1 sequence (P18597 whole entry partner): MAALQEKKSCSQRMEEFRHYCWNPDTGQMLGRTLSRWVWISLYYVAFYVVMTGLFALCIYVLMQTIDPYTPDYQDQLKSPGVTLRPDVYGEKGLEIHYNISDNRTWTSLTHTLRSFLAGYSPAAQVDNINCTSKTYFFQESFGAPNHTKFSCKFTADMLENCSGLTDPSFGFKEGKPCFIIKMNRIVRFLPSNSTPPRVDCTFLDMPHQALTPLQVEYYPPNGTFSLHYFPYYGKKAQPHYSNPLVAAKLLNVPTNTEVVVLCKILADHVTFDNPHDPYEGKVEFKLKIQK
SMILES,"IC50 (H^+,K^+ -ATPase) [µM]",ED50 [1] [mg/kg],ED50 (gastric acid secretion) [mg/kg]
"Cc1cnc(/C=C\c2cccc3c(C)cccc23)cc1N1CCCCC1 [Test compound 10, (Z)-2-[2-(5-methyl-1-naphthyl)vinyl]-5-methyl-4-piperidinopyridine hydrochloride]",6,–,–
Cc1cnc(COc2ccc(C(C)(C)C)cc2)cc1N1CCCCC1 [compound 2],3.5,–,–
"Cc1cnc(COc2ccccc2)cc1N1CCCCC1.Cl [Test compound 1, 5-methyl-2-phenoxymethyl-4-piperidinopyridine hydrochloride]",8.4,12.1,–
CCC(C)c1ccc(OCc2cc(N3CCCCC3)c(C)cn2)cc1 (stereo not drawn) [compound 3],4.1,–,–
"Cc1cnc(CCc2ccccc2)cc1N1CCCCC1.Cl [Test compound 27, 5-methyl-2-phenethyl-4-piperidinopyridine hydrochloride]",–,5.4,–
Cc1cnc(/C=C\c2cccc3ccccc23)cc1N1CCCCCC1 [compound 13],0.78,–,0.9
"Cc1cnc(CCc2ccc3ccccc3c2)cc1N1CCCCC1.Cl [Test compound 28, 5-methyl-2-[2-(2-naphthyl)ethyl]-4-piperidinopyridine hydrochloride]",3,3.6,–
"Cc1cnc(/C=C\c2cccc3ccccc23)cc1N1CCC(C)CC1.Cl [Test compound 14, (Z)-5-methyl-4-(4-methylpiperidino)-2-[2-(1-naphthyl)vinyl]pyridine hydrochloride]",2.8,–,1.09
"Cc1cnc(/C=C\c2cccc(Cl)c2Cl)cc1N1CCCCC1 [Test compound 20, (Z)-2-[2-(2,3-dichlorophenyl)vinyl]-5-methyl-4-piperidinopyridine hydrochloride]",4.6,–,–
"Cc1ccc2cc(CCc3cc(N4CCCCC4)c(C)cn3)ccc2c1 [Test compound 29, 5-methyl-2-[2-(6-methyl-2-naphthyl)-ethyl]-4-piperidinopyridine hydrochloride]",2.3,–,–
"Cc1cnc(CSc2ccc3ccccc3c2)cc1N1CCCCC1.Cl [Test compound 6, 5-methyl-2-[(2-naphthyl)thiomethyl]-4-piperidinopyridine hydrochloride]",9,7.3,–
"Cc1cnc(CCc2cccc3ccccc23)cc1N1CCC(C)CC1.Cl [Test compound 21, 5-methyl-4-(4-methylpiperidino)-2-[2-(1-naphthyl)ethyl]pyridine hydrochloride]",2.7,–,0.78
"Cc1cnc(CSc2ccccc2)cc1N1CCCCC1.Cl [Test compound 5, 5-methyl-2-phenylthiomethyl-4-piperidinopyridine hydrochloride]",16,9.2,–
Cc1cnc(/C=C\c2cccc3ccccc23)cc1N1CCCCC1 [compound 7],2.2,–,1.16
Cc1cnc(/C=C\c2cccc3ccccc23)cc1N1CCCC(C)C1 (stereo not drawn) [compound 15],1.7,–,0.99
"Cc1cnc(CCc2cccc3ccccc23)cc1N1CCCCC1 [Test compound 22, 5-methyl-2-[2-(1-naphthyl)ethy]-4-piperidinopyridine hydrochloride]",3.6,5.4,2.5
"Cc1cnc(CCc2ccc(C)c3ccccc23)cc1N1CCCCC1 [Test compound 23, 5-methyl-2-[2-(4-methyl-1-naphthyl)-ethyl]-4-piperidinopyridine hydrochloride]",4.6,–,–
"Cc1cnc(/C=C\c2cccc3cccc(C)c23)cc1N1CCCCC1 [Test compound 11, (Z)-2-[2-(8-methyl-1-naphthyl)vinyl]-5-methyl-4-piperidinopyridine]",2.3,–,0.92
Cc1cnc(/C=C\c2ccc(F)c3ccccc23)cc1N1CCCCC1 [compound 9],5.9,–,–
"COc1ccc2[nH]c([S+]([O-])Cc3ncc(C)c(OC)c3C)nc2c1 (stereo not drawn) [omeprazole, reference compound]",6.2,34.1,–
"Cc1cnc(CCc2cccc3cccc(C)c23)cc1N1CCCCC1.Cl [Test compound 24, 5-methyl-2-[2-(8-methyl-1-naphthyl)-ethyl]-4-piperidinopyridine hydrochloride]",6,–,2.72
"Cc1cnc(CCc2cccc3ccccc23)cc1N1CCCC(C)C1.Cl (stereo not drawn) [Test compound 26, 5-methyl-4-(3-methylpiperidino)-2-[2-(1-naphthyl)ethyl]pyridine hydrochloride]",1.7,–,0.91
"Cc1cnc(/C=C/c2ccc3ccccc3c2)cc1N1CCCCC1 [Test compound 17, (E)-5-methyl-2-[2-(2-naphthyl)vinyl]-4-piperidinopyridine hydrochloride]",4.3,–,–
Cc1cnc(COc2ccc(C3CCCCC3)cc2)cc1N1CCCCC1 [compound 4],3.8,–,–
"Cc1ccc2cc(/C=C\c3cc(N4CCCCC4)c(C)cn3)ccc2c1 [Test compound 19, (Z)-5-methyl-2-[2-(6-methyl-2-naphthyl)-vinyl]-4-piperidinopyridine]",7.8,–,–
"C(=C/c1cnccc1N1CCCCC1)/c1ccc2ccccc2c1 [Test compound 16, (Z)-3-[2-(2-naphthyl)vinyl]-4-piperidinopyridine]",2.6,–,–
"Cc1cnc(/C=C\c2ccc3ccccc3c2)cc1N1CCCCC1 [Test compound 18, (Z)-5-methyl-2-[2-(2-naphthyl)vinyl]-4-piperidinopyridine hydrochloride]",8.4,–,–
"Cc1cnc(/C=C\c2ccc(Cl)c3ccccc23)cc1N1CCCCC1.Cl [Test compound 8, (Z)-2-[2-(4-chloro-1-naphthyl)vinyl]-5-methyl-4-piperidinopyridine hydrochloride]",4.8,–,2.78
Cc1cnc(/C=C\c2cccc3ccccc23)cc1OC1CCCCC1 [compound 12],3.5,–,1.35
"Cc1cnc(CCc2cccc3ccccc23)cc1OC1CCCCC1.Cl [Test compound 25, 4-cyclohexyloxy-5-methyl-2-[2-(1-naphthyl)ethyl]pyridine hydrochloride]",2.6,–,0.91
